The record followed here is patent US5863950A, “HIV protease inhibitors” (Agouron Pharmaceuticals, Inc., priority 1994, dated 1999).

In brackets after ≈: the same amount, converted by molar mass.

As usually defined, the Ki is a dissociation constant, usually derived from enzyme kinetics or from competition with a known ligand. A high value points to weaker binding.

One assay has as its target T1, HIV-1 protease (Human immunodeficiency virus type 1 group M subtype B, UniProt P04585).
T1 construct: purified HIV-1 protease
Kind of assay: biochemical. Type of assay: biochemical. As to conditions: 0.5M NaCl, 50 mM MES pH 5.6, 2% DMSO, 37° C., 200 μM substrate.

Another assay deals with HIV-1 (MT-2 cells). The assay is described as follows: Anti-HIV MTT assay, inhibition of HIV-induced cell killing, MT-2 cells. Type of assay: cell-based, HIV-1 isolates IIIB and/or RF. The note with it: Human immunodeficiency virus 1, MT2, 144 h; MT-2 cells (second position), 6 days, 37° C., MTT; read-out: Viral MT-2. The source says:
(§1) SRI has an established program for the primary antiviral analysis of compounds in microtiter assays which measure the ability of a selected compound to inhibit HIV-induced cell killing. This assay involves the conversion of the tetrazolium dye MTT to a colored formazan product by mitochondrial enzymes in metabolically active cells. This assay system is presently used at SRI to screen over 30,000 compounds per year. Briefly, the assay involves the infection of CEM or MT2 cells in round bottom 96-well plates. The compound of interest is added just prior to infection. Following 6 days of incubation at 37° C. the plates are stained with MTT. The results of the assay are quantitated spectrophotometrically on a Molecular Devices Vmax plate reader. The data is analyzed by linear regression utilizing an in-house software program to calculate antiviral activity. (IC25, IC50, IC95) and toxicity (TC25, TC50, TC95) as well as other values.
(§2) Primary antiviral assays are routinely performed in CEM or MT-2 cells.
(§3) Drugs will be solubilized in the appropriate vehicle such as distilled water or DMSO if necessary. Latex gloves, lab coats and masks are used during all phases of the handling process to prevent exposure to potentially harmful agents. The drug is prepared at the appropriate concentration and stored at -20° C. until used by the screening laboratory. The first dilution of each compound is made in a dilution tube with medium to yield a concentration two-fold that of the highest test concentration. Sterile titer tubes are then used to make serial one half-log dilutions of each compound. Following drug dilution, the diluted compound is added to the appropriate well of a 96-well microtiter plate. Up to 12 dilutions can be assayed conveniently in triplicate on a single plate with all appropriate controls including cell control, virus control, toxicity control, drug color control, medium control and plastic (background) control. When testing includes only six dilutions, two drugs can be assayed on a single microtiter plate. The drugs are added to the plate in a final volume of 100 microliters.
(§4) During the time the drug dilutions are prepared, cells are washed and counted. Viability is monitored by trypan blue dye exclusion and assays are not performed if the viability falls below 90%. Cells are maintained in an exponential growth phase and are split 1:2 on the day prior to assay to assure exponential growth rate.
(§5) For the primary screen, the cell lines utilized are CEM and MT-2. Unless otherwise indicated, the medium used is RPMI 1640 with 10% heat-inactivated fetal calf serum (FBS), glutamine and antibiotics.
(§6) Cells are propagated at 37° C. in an atmosphere of 5% CO2 in air. The virus employed for this work is HIV-1 isolates IIIB and/or RF, which are prepared by an acute infection process.
(§7) Briefly, virus-infected cells are pelleted on a daily basis beginning at three days post-infection until the virus has killed all of the cells in the culture. Reverse transcriptase activity and p24 ELISA are used to identify pools with the greatest amount of virus.
(§8) These 24-hour harvests are pooled, filtered and frozen at -90° C. Prior to use in the assay, the infectious pool of virus is titered on all available cell lines in order to determine the amount of virus required in the antiviral assay.
(§9) In general, pools produced by the acute infection method require the addition of one microliter of infectious virus per well resulting in the screening of drugs at a multiplicity of infection of 0.01. In this manner enough virus is prepared and frozen to complete over one thousand microtiter plates, allowing the testing of up to two thousand compounds from a single stock of infectious virus. The use of a single stock of virus for a long period of testing has very favorable effects on the repeatability of the assay systems.
(§10) Virus infection of the CEM and MT-2 cells for the antiviral assay is carried out in a bulk infection process. […]
In general terms: Tetrazolium assays rely on reduction of a dye to a coloured formazan, in cell work by metabolically active cells.

In another assay the test system is HIV-1 (CEM cells). The assay is described as follows: Anti-HIV MTT assay, inhibition of HIV-induced cell killing, CEM cells. As to conditions: Human immunodeficiency virus 1, CCRF-CEM, 144 h, CEM cell line (first position), 6 days, 37° C., read-out: Viral CEM. The class given is cell-based, HIV-1 isolates IIIB and/or RF.
From the text: as §1, §2, §3, §4, §5, §6, §7, §8, §9, §10

The next assay has as its system HIV. The assay is described as follows: antiviral assay (enantiomer comparison, cell line not given). The note with it: enantiomers compared with each other. Type of assay: cell-based.

As to `CCC1(N(CCO)C(=O)c2ccccc2CCC(O)Cc2ccc(C)cc2C(=O)N(CC2CCCO2)C(C)(C)c2ccccc2)CCCC1` (stereo not drawn) [Example 115], the IC50 turned out to be 290 nM against HIV-1 protease, 6.34 µg/mL (≈ 9.48 µM) with HIV-1 (MT-2 cells) and 4.16 µg/mL (≈ 6.22 µM) in the assay with HIV-1 (CEM cells). Moreover, the affinity on HIV-1 protease, expressed as Ki, was 17 nM.

In the case of `CCC1(N(CCO)C(=O)c2ccccc2CC[C@@H](O)Cc2ccc(C)cc2C(=O)N(CCO)C(C)(C)c2ccccc2)CCCC1` [Example 116a], the “activity in the antiviral assay” value in the assay on HIV was “more active”.

Take `CCC1(N(CCO)C(=O)c2ccccc2CC[C@H](O)Cc2ccc(C)cc2C(=O)N(CCO)C(C)(C)c2ccccc2)CCCC1` [Example 116b]: the “activity in the antiviral assay” value in the assay with HIV is reported as “less active”.
